Assay results from article PMC4171606, “A novel copper(I) complex induces ER-stress-mediated apoptosis and sensitizes B-acute lymphoblastic leukemia cells to chemotherapeutic agents” (Oncotarget, 2014).

Tests used:
[1] = system: human leukemia cell lines; assay: MTT growth inhibition, panel of twelve leukemia cell lines, 72 h; assay type: cell-based; settings: healthy lymphocytes vs B-leukemia cells
Experimental: [Cu(thp)4][PF6] (CP) was evaluated for its growth inhibition activity on a panel of twelve different human leukemia cell lines (five B-acute lymphoblastic leukemia, three T-acute lymphoblastic leukemia, three acute myeloid leukemia and one chronic myeloid leukemia). Cells were treated for 72 h with CP and cell viability was evaluated by MTT test. […] This abnormal high expression of proteasomal proteins and mRNA seem to be correlated to the hyperproliferation of these cancer cells and to the sensitivity towards proteasome inhibitors.
The human leukemia cell lines RS 4;11, SEM, REH, RCH-ACV, MHH-CALL2, Jurkat, CCRF-CEM, HSB2, HL-60, K562, THP-1, MV4;11 were purchased from the American Type Culture Collection. Cells were cultured in RPMI 1640 (Life Technologies, Italy) supplemented with 10% fetal bovine serum (FBS), glutamine (2 mM; Life Technologies, Italy), penicillin (100 U/ml; Life Technologies, Italy) and streptomycin (100 μg/ml; Life Technologies, Italy), and maintained at 37°C in a humidified atmosphere with 5% CO2. The cytotoxic activity of CP was determined using a standard 3-[4,5-dimethylthiazol-2-yl]-2,5-diphenyltetrazodium bromide (MTT) based colorimetric assay (Sigma-Aldrich, Italy). Briefly, cells were seeded at a density of 2×10^4 cells/well in 96-well microtiter plates. After 24 h, cells were exposed to the test compound. After different times, cell survival was determined by the addition of an MTT solution as previously described.

[2] = system: 26S proteasome semipurified from RS4;11 cells, chymotrypsin like (CT) activity; assay: Proteasome activity on semipurified cell extract (fluorogenic substrate); assay type: biochemical, human; settings: RS4;11 extract, 60 min at 37 °C, cell-free
From the text: (§1) The 26S proteasome is a multicatalytic protease responsible for the regulated intracellular protein degradation. Its function is mediated by three main catalytic activities i) chymotrypsin like (CT) ii) Trypsin-like (T) and iii) peptidyl glutamyl peptide hydrolyzing (PGPH). To evaluate the effect of CP on the proteasome activity in leukemia cells, we tested increasing concentrations of the compound on semipurified 26S proteasome extract from RS4;11 and SEM cells, and measured the functioning of each individual proteolytic activity under cell-free condition.
(§2) FIGURE 3 CP treatment affects Ubiquitin Proteasome System (UPS) 26S proteasome (100 μg) semipurified from (A) SEM and (B) RS4;11 cells was incubated for 60 min at 37 °C with CP at different concentrations. Chymotrypsin (CT), trypsin (T) and peptidyl glutamyl peptide hydrolyzing (PGPH) catalytic activity were measured fluorimetrically (excitation 370, nm emission 460) by following the release of free AMC from synthetic substrates N-Suc-Leu-Leu-Val-Tyr-AMC, Boc-Gln-Ala-Arg-AMC and Z-Leu-Leu-Glu-AMC, specific for CT, T and PGPH activity, respectively. (C) Cells were incubated with CP 2.5 μM for the indicated times and then western blot analyses were performed to evaluate Ubiquitin accumulation.
(§3) RS4;11 and SEM cells were homogenized in a lysis buffer (50 mM Tris-HCl, pH 7.5, 250 mM sucrose, 5 mM MgCl2, 1 mM DTT, 0.5 mM EDTA) and ultracentrifuged for 2 h at 300,000 g. Total protein content was estimated with BioRad protein assay (BioRad) and 100 μg of protein aliquots were incubated for 60 min at 37°C with CP at different concentrations. Afterwards, fluorogenic proteasome substrates (N-Suc-Leu-Leu-Val-Tyr-7-amido-4-methylcoumarin (AMC) for chymotripsin (CT), Boc-Gln-Ala-Arg-AMC for tripsin (T) and Z-Leu-Leu-Glu-AMC for peptidyl glutamyl peptide hydrolyzing (PGPH) were added and the substrate hydrolysis was measured after 30 min by monitoring the release of Tyr-7-amido-4-methylcoumarin (AMC) using a Varian Cary Eclipse (Varian) spectrofluorometer (excitation at 370 nm, emission at 460 nm).

[3] = system: 26S proteasome semipurified from RS4;11 cells, Trypsin-like (T) activity; assay: as above; assay type: biochemical, human; settings: RS4;11 extract, 60 min at 37 °C, cell-free
From the text: as §1, §2, §3

[4] = system: 26S proteasome semipurified from SEM cells, Trypsin-like (T) activity; assay: as above; assay type: biochemical, human; settings: 60 min at 37 °C, cell-free
From the text: as §1, §2, §3

[5] = system: 26S proteasome semipurified from RS4;11 cells, peptidyl glutamyl peptide hydrolyzing (PGPH) activity; assay: as above; assay type: biochemical, human; settings: RS4;11 extract, 60 min at 37 °C, cell-free
From the text: as §1, §2, §3

[6] = system: 26S proteasome semipurified from SEM cells, peptidyl glutamyl peptide hydrolyzing (PGPH) activity; assay: as above; assay type: biochemical, human; settings: 60 min at 37 °C, cell-free
From the text: as §1, §2, §3

[7] = system: 26S proteasome semipurified from SEM cells, chymotrypsin like (CT) activity; assay: as above; assay type: biochemical, human; settings: 60 min at 37 °C, cell-free
From the text: as §1, §2, §3

F[P-](F)(F)(F)(F)F.OCP(CO)CO.OCP(CO)CO.OCP(CO)CO.OCP(CO)CO.[Cu+] [CP, [Cu(thp)4][PF6]]
cytotoxic activity on healthy lymphocytes lower than B-leukemia cells [1]: 5-10 fold
IC50 [2]: ~18 µM
IC50 [3]: ~11 µM
IC50 [4]: ~12 µM
IC50 [5]: ~10 µM
IC50 [6]: ~16 µM
IC50 [7]: ~15 µM
